The supplement of paper PMC10307832

Assays:
Assay in all cases: relative viability (nuclei count vs DMSO), 5 days (fraction); higher = more cells survive
[1] = tested on: 201T
Method in brief: (§1)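 One day after seeding in 1536-well plates, lung cancer cell lines were dosed by pin tool. Dosing was either single-drug or a fixed anchor-drug dose plus five library-drug doses (not always all listed) in √10 steps. After 5 days, nuclei were stained in one fix-and-stain step and counted on 4× images, and relative viability is the nuclei count of treated wells over that of vehicle wells, given as the median of duplicate plates.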

[2] = tested on: BEN
Method in brief: as §1

[3] = tested on: COR-L 105
Method in brief: as §1

[4] = tested on: EKVX
Method in brief: as §1

[5] = tested on: EPLC-272H
Method in brief: as §1

[6] = tested on: H3255
Method in brief: as §1

[7] = tested on: HCC-44
Method in brief: as §1

[8] = tested on: HCC-827
Method in brief: as §1

[9] = tested on: HOP-62
Method in brief: as §1

[10] = tested on: LCLC-97TM1
Method in brief: as §1

[11] = tested on: LOU-NH91
Method in brief: as §1

[12] = tested on: LU99A
Method in brief: as §1

`COc1cc(N2CCC(C(N)=O)CC2)ccc1Nc1nc(N)c(Cl)c(Nc2ccccc2S(=O)(=O)C(C)C)n1` [HG-5-88-01] + CS(=O)(=O)CCNCc1ccc(-c2ccc3ncnc(Nc4ccc(OCc5cccc(F)c5)c(Cl)c4)c3c2)o1 [Lapatinib] (partner 2 µM) was tested, and the relative viability ([1]; first compound 0.04 µM) was 1.03, the relative viability ([1]; first compound 0.1265 µM) was 0.922 and the relative viability ([1]; first compound 0.4 µM) was 1.01. For the same compound, the relative viability ([1]; first compound 1.265 µM) was 1.07, the relative viability ([1]; first compound 4 µM) was 1.14 and the relative viability ([2]; first compound 0.04 µM) was 0.817. It also gave a relative viability ([2]; first compound 0.1265 µM) of 0.743, a relative viability ([2]; first compound 0.4 µM) of 0.66 and a relative viability ([2]; first compound 1.265 µM) of 0.586. It also gave a relative viability ([2]; first compound 4 µM) of 0.545, a relative viability ([3]; first compound 0.04 µM) of 0.346 and a relative viability ([3]; first compound 0.1265 µM) of 0.375. For the same compound, the relative viability ([3]; first compound 0.4 µM) was 0.329, the relative viability ([3]; first compound 1.265 µM) was 0.336 and the relative viability ([3]; first compound 4 µM) was 0.334. It also gave a relative viability ([4]; first compound 0.04 µM) of 0.212, a relative viability ([4]; first compound 0.1265 µM) of 0.215 and a relative viability ([4]; first compound 0.4 µM) of 0.184. The relative viability ([4]; first compound 4 µM) was 0.15, the relative viability ([5]; first compound 0.04 µM) was 0.871 and the relative viability ([5]; first compound 0.1265 µM) was 0.952. For the same compound, the relative viability ([5]; first compound 0.4 µM) was 0.994, the relative viability ([5]; first compound 1.265 µM) was 0.949 and the relative viability ([5]; first compound 4 µM) was 0.0809. It also gave a relative viability ([6]; first compound 0.04 µM) of 0.25, a relative viability ([6]; first compound 0.1265 µM) of 0.249 and a relative viability ([6]; first compound 0.4 µM) of 0.244. The relative viability ([6]; first compound 4 µM) was 0.212, the relative viability ([7]; first compound 0.04 µM) was 0.978 and the relative viability ([7]; first compound 0.1265 µM) was 0.987. The relative viability ([7]; first compound 0.4 µM) was 0.845, the relative viability ([7]; first compound 1.265 µM) was 1.04 and the relative viability ([7]; first compound 4 µM) was 0.669. The relative viability ([8]; first compound 0.04 µM) was 0.202, the relative viability ([8]; first compound 0.1265 µM) was 0.211 and the relative viability ([8]; first compound 0.4 µM) was 0.17. The relative viability ([8]; first compound 1.265 µM) was 0.197, the relative viability ([8]; first compound 4 µM) was 0.17 and the relative viability ([9]; first compound 0.04 µM) was 1.1. It also gave a relative viability ([9]; first compound 0.1265 µM) of 1.1, a relative viability ([9]; first compound 0.4 µM) of 1.05 and a relative viability ([9]; first compound 1.265 µM) of 1.2. For the same compound, the relative viability ([9]; first compound 4 µM) was 0.893, the relative viability ([10]; first compound 0.04 µM) was 0.999 and the relative viability ([10]; first compound 0.1265 µM) was 0.95. The relative viability ([10]; first compound 0.4 µM) was 0.471, the relative viability ([10]; first compound 1.265 µM) was 0.683 and the relative viability ([10]; first compound 4 µM) was 0.301. The relative viability ([11]; first compound 0.04 µM) was 0.743, the relative viability ([11]; first compound 0.1265 µM) was 0.673 and the relative viability ([11]; first compound 0.4 µM) was 0.594. For the same compound, the relative viability ([11]; first compound 1.265 µM) was 0.592, the relative viability ([11]; first compound 4 µM) was 0.608 and the relative viability ([12]; first compound 0.04 µM) was 1.03. It also gave a relative viability ([12]; first compound 0.1265 µM) of 1.02 and a relative viability ([12]; first compound 0.4 µM) of 1.
